Measured values: publication PMC10354055, “An optimized Nurr1 agonist provides disease-modifying effects in Parkinson’s disease models” (Nature Communications, 2023)
Several values for one entry are separate records, joined by “and”; a condition that tells them apart may be missing. Equal entries are not always repeated.

Columns and labels:
Nurr1-LBD = Nurr1-LBD (Homo sapiens, UniProt P43354); assay: TR-FRET competition assay with HCQFluo; assay type: binding; settings: Fig. 1i
Method: TR-FRET assay was performed in PPI Terbium (Tb) detection buffer (PerkinElmer) and contained 0.2 µM of Nurr1-LBD, 0.5 µM of fluorescence-labeled hydroxy-CQ (HCQFluo; Proimaging) and serial concentrations of CQ, 4A7C-301 or RA (10^−4–10^6 nM). Rabbit anti-Nurr1 antibody (3 nM; prepared in our lab) and anti-rabbit IgG-Tb (1:400; Cisbio, 61PARTAF) were included in the assay solution as a donor complex. Assay solutions were loaded in a 384-well OptiPlate™ (PerkinElmer). After 2 h incubation in the dark at room temperature, the FRET signal was measured by excitation at 340 nm and emission at 520 nm for fluorescein and 495 nm for Tb using a VICTOR Nivo plate reader (PerkinElmer). Data were fit using the non-linear regression program in GraphPad Prism version 8.0.2.

N27-A cells = assay: Mitochondrial activity assay, Seahorse XFp, N27-A cells; assay type: cell-based, rat; design: Seahorse time trace (OCR): unit not given here; settings: for OCR changes after FCCP injection: MPP+ co-treatment, individual replicates (Supplementary Figure S1o); for Seahorse time trace (OCR) / Basal respiration / Maximal respiration / ATP turnover: replicates; for Basal respiration: Fig. S1l; for Basal respiration / Maximal respiration / ATP turnover: with MPP+; for Maximal respiration: Fig. S1m; for ATP turnover: Fig. S1n
Method: Mitochondrial activity was measured using the Seahorse XFp analyzer (Agilent Technologies) according to the manufacturer’s instruction. Briefly, cells were plated onto wells of a XFp cell culture miniplate and incubated in a 37 °C incubator overnight. The assay was performed after cells were equilibrated for 1 h in XF assay medium supplemented with 10 mM D-glucose, 5 mM sodium pyruvate, and 2 mM glutamax in a non-CO2 incubator. Mitochondrial activity was monitored through sequential injections of 1 μM oligomycin, 2 μM carbonyl cyanide-4 (trifluoromethoxy) phenylhydrazone (FCCP) and 0.5 μM rotenone/antimycin A to calculate basal respiration (= baseline oxygen consumption rate (OCR)−rotenone/antimycin A OCR), maximal respiration (= FCCP OCR−rotenone/antimycin A OCR), ATP turnover (= baseline OCR−oligomycin OCR), and OCR changes after FCCP injection (= FCCP OCR−oligomycin OCR). Each plotted value was normalized to total protein quantified using a Bradford protein assay (Bio-Rad) and analyzed using the Seahorse WAVE Desktop software (Agilent Technologies).

MPTP-induced male mice = assay: Pole test, MPTP-induced PD model mice; assay type: in vivo, mouse
Method: MPTP (Sigma-Aldrich) was intraperitoneally (i.p.) injected (30 mg/kg) for 5 days (Day 1-5). […] To test dyskinetic involuntary behavior, an L-DOPA injected group was included, which received 50 mg/kg of L-DOPA and 15 mg/kg of benserazide (Sigma-Aldrich) (i.p.) for 16 days (Day 1–16). All compounds were administered 6 h post-MPTP injection to avoid any effect of compounds on the MPTP metabolism in the brain. Motor and non-motor related behavior tests were performed on the following days as described in Fig. 4a in an assessor- and observer-blinded fashion. Pre-training and baseline setup for motor-related behaviors were performed 3 days prior to the injections. Mice were sacrificed and subjected to immunohistochemistry. Mice were housed at the Animal Care Facilities of McLean Hospital under a 12-h light/12-h dark cycle, ambient temperature and humidity. Animals were handled in accordance with McLean Hospital’s Institutional Animal Care and Use Committee (Protocol #: 2015N000002) and followed National Institutes of Health guidelines.
Mice were trained to descend a vertical metal rod wrapped with rough tape (80 cm high, 12 mm diameter) once per day for 2 days, and then the baseline was measured before the pole test (3 days before the MPTP injection or the first pole test at week 2). Mice were placed head-upward on the pole and total descent time was recorded.

Nurr1-LBD, sequence (P43354 360-595 limits assumed, species assumed): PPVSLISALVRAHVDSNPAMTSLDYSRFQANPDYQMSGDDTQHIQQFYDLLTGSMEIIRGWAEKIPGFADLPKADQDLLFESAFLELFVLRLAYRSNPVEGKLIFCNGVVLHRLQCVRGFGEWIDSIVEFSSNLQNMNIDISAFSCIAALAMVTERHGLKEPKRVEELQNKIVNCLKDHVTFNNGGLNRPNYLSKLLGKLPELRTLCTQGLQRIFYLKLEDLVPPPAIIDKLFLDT

## CCN1CCN(c2cc(N3CCN(CC)CC3)nc(NCCNc3ccnc4cc(Cl)ccc34)n2)CC1 [4A7C-301, N^1-(4,6-bis(4-ethylpiperazin-1-yl)pyrimidin-2-yl)-N^2-(7-chloroquinolin-4-yl)ethane-1,2-diamine]
Nurr1-LBD; 0.05 µM
  Interaction [HTRF]: 3265.9820 and 3537.6830 and 3401.8330
Nurr1-LBD; 0.1 µM
  Interaction [HTRF]: 3598.5100 and 3223.1060 and 3410.8080
Nurr1-LBD; 0.5 µM
  Interaction [HTRF]: 3591.7500 and 3214.1330 and 3402.9410
Nurr1-LBD; 1 µM
  Interaction [HTRF]: 2993.5610 and 3208.3240 and 3100.9430
Nurr1-LBD; 5 µM
  Interaction [HTRF]: 3661.8470 and 3369.4680 and 3515.6580
Nurr1-LBD; 10 µM
  Interaction [HTRF]: 3348.5030 and 3240.2560 and 3294.3790
Nurr1-LBD; 50 µM
  Interaction [HTRF]: 3293.1070 and 2930.3900 and 3111.7480
Nurr1-LBD; 100 µM
  Interaction [HTRF]: 3045.7890 and 3264.7900 and 3155.2890
Nurr1-LBD; 200 µM
  Interaction [HTRF]: 3424.3450 and 3220.2860 and 3322.3150
Nurr1-LBD; competition with HCQFluo
  IC50: 108 nM and 100 nM
N27-A cells; CQ 100 µM, 4A7C-301 1 µM
  OXPHOS capacity reduced by MPP+ (in words): efficiently restored
N27-A cells; Control N27-A cells
  OCR changes after FCCP injection: 22.93 pmol/min/µg protein and 28.37 pmol/min/µg protein and 27.04 pmol/min/µg protein and 22.31 pmol/min/µg protein
N27-A cells; Fig. S1j/k, Control + MPP+, time 2 min
  Seahorse time trace (OCR): 28.88 and 28.2 and 18.44 and 14.94
N27-A cells; Fig. S1j/k, Control + MPP+, time 8 min
  Seahorse time trace (OCR): 28.86 and 28.61 and 14.72 and 11.2
N27-A cells; Fig. S1j/k, Control + MPP+, time 15 min
  Seahorse time trace (OCR): 28.17 and 28.8 and 13.75 and 10.54
N27-A cells; Fig. S1j/k, Control + MPP+, time 21 min
  Seahorse time trace (OCR): 9.43 and 9.81 and 3.69 and 2.8
N27-A cells; Fig. S1j/k, Control + MPP+, time 28 min
  Seahorse time trace (OCR): 9.7 and 9.86 and 4.4 and 3.39
N27-A cells; Fig. S1j/k, Control + MPP+, time 34 min
  Seahorse time trace (OCR): 9.59 and 9.6 and 4.42 and 3.28
N27-A cells; Fig. S1j/k, Control + MPP+, time 41 min
  Seahorse time trace (OCR): 32.36 and 38.18 and 30.73 and 25.11
N27-A cells; Fig. S1j/k, Control + MPP+, time 47 min
  Seahorse time trace (OCR): 29.9 and 35.04 and 27.29 and 22.64
N27-A cells; Fig. S1j/k, Control + MPP+, time 54 min
  Seahorse time trace (OCR): 29.63 and 34.46 and 27.32 and 22.95
N27-A cells; Fig. S1j/k, Control + MPP+, time 61 min
  Seahorse time trace (OCR): 9.52 and 9.47 and 4.93 and 3.5
N27-A cells; Fig. S1j/k, Control + MPP+, time 67 min
  Seahorse time trace (OCR): 9.83 (2×) and 4.57 and 3.36
N27-A cells; Fig. S1j/k, Control + MPP+, time 74 min
  Seahorse time trace (OCR): 9.8 and 10.29 and 4.41 and 3.28
N27-A cells; Fig. S1j, Nurr1 OE + MPP+, time 2 min
  Seahorse time trace (OCR): 21.96 and 38.12 and 34.89 and 26.1
N27-A cells; Fig. S1j, Nurr1 OE + MPP+, time 8 min
  Seahorse time trace (OCR): 20.5 and 33.32 and 33.36 and 24.15
N27-A cells; Fig. S1j, Nurr1 OE + MPP+, time 15 min
  Seahorse time trace (OCR): 22.25 and 31.43 and 31.49 and 19.26
N27-A cells; Fig. S1j, Nurr1 OE + MPP+, time 21 min
  Seahorse time trace (OCR): 7.36 and 10.03 and 6.69 and 7.02
N27-A cells; Fig. S1j, Nurr1 OE + MPP+, time 28 min
  Seahorse time trace (OCR): 8.04 and 9.23 and 7.6 and 8.44
N27-A cells; Fig. S1j, Nurr1 OE + MPP+, time 34 min
  Seahorse time trace (OCR): 7.79 and 8.85 and 8.38 and 8.58
N27-A cells; Fig. S1j, Nurr1 OE + MPP+, time 41 min
  Seahorse time trace (OCR): 58.47 and 42.11 and 44.82 and 40.84
N27-A cells; Fig. S1j, Nurr1 OE + MPP+, time 47 min
  Seahorse time trace (OCR): 58.99 and 40.77 and 43.63 and 37.36
N27-A cells; Fig. S1j, Nurr1 OE + MPP+, time 54 min
  Seahorse time trace (OCR): 57.85 and 39.58 and 42.17 and 36.47
N27-A cells; Fig. S1j, Nurr1 OE + MPP+, time 61 min
  Seahorse time trace (OCR): 7.42 and 11.41 and 5.09 and 5.68
N27-A cells; Fig. S1j, Nurr1 OE + MPP+, time 67 min
  Seahorse time trace (OCR): 7.08 and 11.69 and 6.18 and 6.3
N27-A cells; Fig. S1j, Nurr1 OE + MPP+, time 74 min
  Seahorse time trace (OCR): 8.5 and 11.39 and 6.45 and 6.32
N27-A cells; Fig. S1k, Nurr1 KD + MPP+, time 2 min
  Seahorse time trace (OCR): 9.8 and 10.5 and 12.93 and 13.97
N27-A cells; Control cells
  Basal respiration: 19.37 pmol/min/µg protein and 19.34 pmol/min/µg protein and 12.02 pmol/min/µg protein and 10.67 pmol/min/µg protein
  Maximal respiration: 22.85 pmol/min/µg protein and 28.71 pmol/min/µg protein and 26.31 pmol/min/µg protein and 21.83 pmol/min/µg protein
  ATP turnover: 19.25 pmol/min/µg protein and 18 pmol/min/µg protein and 12.75 pmol/min/µg protein and 12.14 pmol/min/µg protein
N27-A cells; Nurr1 KD cells
  Basal respiration: 6.31 pmol/min/µg protein and 5.78 pmol/min/µg protein and 7.24 pmol/min/µg protein and 8.35 pmol/min/µg protein
  Maximal respiration: 28.48 pmol/min/µg protein and 29.74 pmol/min/µg protein and 27.18 pmol/min/µg protein and 19.97 pmol/min/µg protein
  ATP turnover: 5.27 pmol/min/µg protein and 5.05 pmol/min/µg protein and 6.03 pmol/min/µg protein and 7.23 pmol/min/µg protein
N27-A cells; Nurr1 OE cells
  Basal respiration: 19.17 pmol/min/µg protein and 26.73 pmol/min/µg protein and 28.79 pmol/min/µg protein and 22.43 pmol/min/µg protein
  Maximal respiration: 51.91 pmol/min/µg protein and 33.72 pmol/min/µg protein and 39.72 pmol/min/µg protein and 35.16 pmol/min/µg protein
  ATP turnover: 17.88 pmol/min/µg protein and 29.57 pmol/min/µg protein and 28.2 pmol/min/µg protein and 20.09 pmol/min/µg protein
N27-A cells; Nurr1 KD N27-A cells
  OCR changes after FCCP injection: 27.63 pmol/min/µg protein and 29.1 pmol/min/µg protein and 27.24 pmol/min/µg protein and 20.05 pmol/min/µg protein
N27-A cells; Nurr1 OE N27-A cells
  OCR changes after FCCP injection: 50.72 pmol/min/µg protein and 34.26 pmol/min/µg protein and 38.13 pmol/min/µg protein and 33.82 pmol/min/µg protein
MPTP-induced male mice; CQ 40, 4A7C-301 5, L-DOPA 50 mg/kg/day, i.p., 16 days
  motor function, pole test (in words): significantly rescued
MPTP-induced male mice; Figure 4c, MPTP-induced mice, individual animal values
  Time to traverse: 9.46 s and 8.08 s and 8.64 s and 7.97 s and 6.34 s and 6.11 s and 6.58 s and 5.5 s and 7.12 s
